Assay results: patent publication EP0312245A2, “Polycyclic compounds and pharmaceutical compositions thereof” (NORISTAN HOLDINGS LIMITED, priority 1987, dated 1989)

test system: guinea-pig papillary muscle; experiment: Electrophysiological test: action potential of guinea-pig papillary muscle (microelectrode technique); conditions: Cavia porcellus, read-out: BATH CONCENTRATION (Lowest concentration of the compound to induce suppression of action potential), Table 3; guinea-pig papillary muscle
Method: Electrophysiological studies were conducted on guinea-pig papillary muscle.
Using a microelectrode technique, action potentials were measured from guinea-pig papillary muscles. Action potentials were evoked by electrical stimulation (platinum electrode, Grass S88 stimulator, 1 Hz stimulation frequency; voltage, 10% above threshold). […] The preparations were electrically driven (pacing intervals 1 s, duration 2-5 ms). Slow (Ca2+ mediated) action potentials were evoked in a depolarizing solution (22 mmol/l K and 5 mmol/I Ca^2+) at 0,35 Hz stimulation frequency in order to ensure complete removal of inactivation of slow inward current.

Compound	minimal effective concentration [µM]
CNC12OC3C4C5CC(C6C5C3C61)C42 (racemic) [Compound 1, 8-Methylamino-8,11-oxopentacyclo[5.4.0.0^2,6 .0^3,10 .0^5,9]-undecane]	120
CCCCNC12OC3C4C5CC(C6C5C3C61)C42 (racemic) [Compound 2, 8-η-Butylamino-8,11-oxopentacyclo[5.4.0.0^2,6 .0^3,10 .0^5,9]undecane]	150
c1ccc(CNC23OC4C5C6CC(C7C6C4C72)C53)cc1 (racemic) [Compound 4, 8-Benzylamino-8,11-oxopentacyclo[5.4.0.0^2,6 .0^3,10 .0^5,9]undecane]	20
c1ccc(CCCNC23OC4C5C6CC(C7C6C4C72)C53)cc1 (racemic) [Compound 6, 8-(3-Phenylpropyl)-amino-8,11-oxopentacyclo [5.4.0.0^2,6.0^3,10.0^5,9] undecane]	50
COc1ccc(CCN(C)CCCC(C#N)(c2ccc(OC)c(OC)c2)C(C)C)cc1OC (centres unmarked) [Verapamil, reference compound]	40

same assay, conditions: Cavia porcellus, read-out: BATH CONCENTRATION (Lowest concentration of the compound to induce suppression of action potential), Table 4; racemates and optical isomers

Compound	minimal effective concentration [µM]
CCCCNC12OC3C4C5CC(C6C5C3C61)C42 (racemic) [Compound 2, 8-η-Butylamino-8,11-oxopentacyclo[5.4.0.0^2,6 .0^3,10 .0^5,9]undecane]	150
c1ccc(CNC23OC4C5C6CC(C7C6C4C72)C53)cc1 (racemic) [Compound 4, 8-Benzylamino-8,11-oxopentacyclo[5.4.0.0^2,6 .0^3,10 .0^5,9]undecane]	20
CCCCNC12OC3C4C5CC(C6C5C3C61)C42 (single isomer, unassigned) [(-) -2, 8-η -butylamino-8,11-oxopentacyclo [5.4.0.0^2,6.0^3,10.0^5,9] undecane]	130
c1ccc(CNC23OC4C5C6CC(C7C6C4C72)C53)cc1 (single isomer, unassigned) [(-) -4, 8-benzylamino-8,11-oxopentacyclo [5.4.0.0^2,6.0^3,10.0^5,9]undecane]	56.6

same assay, conditions: Table 3; at the listed bath concentration

Compound	TIME 1 (Shortest time needed to attain suppression) [min]	TIME 2 (Shortest time needed for reversal of effect by washing out of compound) [min]
1 (or7)-Methyl-8-(3-phenylpropyl)-amino-8,11-oxopentacyclo[5.4.0.0^2,6.0^3,10.0^5,9 ]undecane [Compound 12]	12	20
1(or7)-Methyl-8-(2-phenylethyl)-amino-8,11-oxopentacyclo [5.4.0.0^2,6.0^3,1.0^5,9 ]undecane [Compound 11]	32	35
CNC12OC3C4C5CC(C6C5C3C61)C42 (racemic) [Compound 1, 8-Methylamino-8,11-oxopentacyclo[5.4.0.0^2,6 .0^3,10 .0^5,9]-undecane]	25	–
CCCCNC12OC3C4C5CC(C6C5C3C61)C42 (racemic) [Compound 2, 8-η-Butylamino-8,11-oxopentacyclo[5.4.0.0^2,6 .0^3,10 .0^5,9]undecane]	29	–
c1ccc(CNC23OC4C5C6CC(C7C6C4C72)C53)cc1 (racemic) [Compound 4, 8-Benzylamino-8,11-oxopentacyclo[5.4.0.0^2,6 .0^3,10 .0^5,9]undecane]	15	10
c1ccc(CCCNC23OC4C5C6CC(C7C6C4C72)C53)cc1 (racemic) [Compound 6, 8-(3-Phenylpropyl)-amino-8,11-oxopentacyclo [5.4.0.0^2,6.0^3,10.0^5,9] undecane]	18	14
COc1ccc(CCN(C)CCCC(C#N)(c2ccc(OC)c(OC)c2)C(C)C)cc1OC (centres unmarked) [Verapamil, reference compound]	10	15

same assay, conditions: Table 3; suppression of action potential at the listed bath concentration

Compound	DEGREE OF SUPPRESSION
1 (or7)-Methyl-8-(3-phenylpropyl)-amino-8,11-oxopentacyclo[5.4.0.0^2,6.0^3,10.0^5,9 ]undecane [Compound 12]	complete
1(or7)-Methyl-8-(2-phenylethyl)-amino-8,11-oxopentacyclo [5.4.0.0^2,6.0^3,1.0^5,9 ]undecane [Compound 11]	partial
CNC12OC3C4C5CC(C6C5C3C61)C42 (racemic) [Compound 1, 8-Methylamino-8,11-oxopentacyclo[5.4.0.0^2,6 .0^3,10 .0^5,9]-undecane]	very little
CCCCNC12OC3C4C5CC(C6C5C3C61)C42 (racemic) [Compound 2, 8-η-Butylamino-8,11-oxopentacyclo[5.4.0.0^2,6 .0^3,10 .0^5,9]undecane]	very little
c1ccc(CNC23OC4C5C6CC(C7C6C4C72)C53)cc1 (racemic) [Compound 4, 8-Benzylamino-8,11-oxopentacyclo[5.4.0.0^2,6 .0^3,10 .0^5,9]undecane]	complete
c1ccc(CCCNC23OC4C5C6CC(C7C6C4C72)C53)cc1 (racemic) [Compound 6, 8-(3-Phenylpropyl)-amino-8,11-oxopentacyclo [5.4.0.0^2,6.0^3,10.0^5,9] undecane]	complete
COc1ccc(CCN(C)CCCC(C#N)(c2ccc(OC)c(OC)c2)C(C)C)cc1OC (centres unmarked) [Verapamil, reference compound]	complete

same assay, conditions: Table 4; at the listed bath concentration

Compound	TIME 1 (Shortest time needed to attain suppression) [min]	TIME 2 (Shortest time needed for reversal of effect by washing out of compound) [min]
CCCCNC12OC3C4C5CC(C6C5C3C61)C42 (racemic) [Compound 2, 8-η-Butylamino-8,11-oxopentacyclo[5.4.0.0^2,6 .0^3,10 .0^5,9]undecane]	25	–
c1ccc(CNC23OC4C5C6CC(C7C6C4C72)C53)cc1 (racemic) [Compound 4, 8-Benzylamino-8,11-oxopentacyclo[5.4.0.0^2,6 .0^3,10 .0^5,9]undecane]	15	10
CCCCNC12OC3C4C5CC(C6C5C3C61)C42 (single isomer, unassigned) [(-) -2, 8-η -butylamino-8,11-oxopentacyclo [5.4.0.0^2,6.0^3,10.0^5,9] undecane]	25	–
c1ccc(CNC23OC4C5C6CC(C7C6C4C72)C53)cc1 (single isomer, unassigned) [(-) -4, 8-benzylamino-8,11-oxopentacyclo [5.4.0.0^2,6.0^3,10.0^5,9]undecane]	10	5

same assay, conditions: Table 4; suppression of action potential at the listed bath concentration

Compound	DEGREE OF SUPPRESSION
CCCCNC12OC3C4C5CC(C6C5C3C61)C42 (racemic) [Compound 2, 8-η-Butylamino-8,11-oxopentacyclo[5.4.0.0^2,6 .0^3,10 .0^5,9]undecane]	little
c1ccc(CNC23OC4C5C6CC(C7C6C4C72)C53)cc1 (racemic) [Compound 4, 8-Benzylamino-8,11-oxopentacyclo[5.4.0.0^2,6 .0^3,10 .0^5,9]undecane]	complete
CCCCNC12OC3C4C5CC(C6C5C3C61)C42 (single isomer, unassigned) [(-) -2, 8-η -butylamino-8,11-oxopentacyclo [5.4.0.0^2,6.0^3,10.0^5,9] undecane]	little
c1ccc(CNC23OC4C5C6CC(C7C6C4C72)C53)cc1 (single isomer, unassigned) [(-) -4, 8-benzylamino-8,11-oxopentacyclo [5.4.0.0^2,6.0^3,10.0^5,9]undecane]	complete

test system: isolated rabbit ear preparation; experiment: Rabbit ear perfusion test (adrenaline-induced tone, perfusion pressure); conditions: Oryctolagus cuniculus, Table 5; dose 100 µg; read-out: Mean % change in perfusion pressure
Method: Female New Zealand White rabbits (approximately 4kg) were anaesthetised with Sagatal ® (0.5ml/kg).
The central ear artery was cannulated using a 20 G catheter and the ear cut off at its base. Heparinised (5ml, 200 IU;ml) Krebs bicarbonate solution was perfused through the ear to expel the blood. The ear was placed in a warming jacket at 37°C and attached via the arterial catheter to the perfusion pump. Perfusion of the ear with aerated (95% 025% C02)Krebs bicarbonate solution at 37° C was commenced at a rate of 6.5ml/min using a Watson Marlow peristaltic pump. The perfusion pressure was monitored continuously using a pressure transducer (Type 4-327-1221, Consoliated Electrodynamics) coupled to a Devices Recorder.
Following an equilibration period of 15 minutes, increased tone was induced in the preparation by addition of adrenaline (1µg/ml) to the perfusion fluid.
After a stable tone was observed, various concentrations of test compounds were injected into the perfusion fluid and examined for their effect on the perfusion pressure. The effect of vehicle (0.2ml, 50% Krebs 50% ethanol) was also tested on the ear preparation.

Compound	inhibition at 0.1 mg [%]
CCCCNC12OC3C4C5CC(C6C5C3C61)C42 (racemic) [Compound 2, 8-η-Butylamino-8,11-oxopentacyclo[5.4.0.0^2,6 .0^3,10 .0^5,9]undecane]	7.5

same assay, conditions: Oryctolagus cuniculus, Table 5; dose 316 µg; read-out: Mean % change in perfusion pressure

Compound	inhibition at 0.316 mg [%]
CCCCNC12OC3C4C5CC(C6C5C3C61)C42 (racemic) [Compound 2, 8-η-Butylamino-8,11-oxopentacyclo[5.4.0.0^2,6 .0^3,10 .0^5,9]undecane]	8

same assay, conditions: Oryctolagus cuniculus, Table 5; dose 1000 µg; read-out: Mean % change in perfusion pressure

Compound	inhibition at 1 mg [%]
CCCCNC12OC3C4C5CC(C6C5C3C61)C42 (racemic) [Compound 2, 8-η-Butylamino-8,11-oxopentacyclo[5.4.0.0^2,6 .0^3,10 .0^5,9]undecane]	12

same assay, conditions: Oryctolagus cuniculus, Table 5; dose 3160 µg; read-out: Mean % change in perfusion pressure

Compound	inhibition at 3.16 mg [%]
CCCCNC12OC3C4C5CC(C6C5C3C61)C42 (racemic) [Compound 2, 8-η-Butylamino-8,11-oxopentacyclo[5.4.0.0^2,6 .0^3,10 .0^5,9]undecane]	26

same assay, conditions: Table 5; dose 1000 µg

Compound	Mean time taken to return to pre-dose volume [min]
CCCCNC12OC3C4C5CC(C6C5C3C61)C42 (racemic) [Compound 2, 8-η-Butylamino-8,11-oxopentacyclo[5.4.0.0^2,6 .0^3,10 .0^5,9]undecane]	5.5

same assay, conditions: Table 5; dose 3160 µg

Compound	Mean time taken to return to pre-dose volume [min]
CCCCNC12OC3C4C5CC(C6C5C3C61)C42 (racemic) [Compound 2, 8-η-Butylamino-8,11-oxopentacyclo[5.4.0.0^2,6 .0^3,10 .0^5,9]undecane]	5.75
